Data as given in US8192962B2, “Processes for detecting toxic substances” (Daikin Industries, Ltd., priority 2001, dated 2012).

System: Mitochondria-located protein genes
Experiment: DNA chip mRNA expression in yeast, mitochondria-located protein genes (Table 2)
Type: cell-based, Saccharomyces cerevisiae S288C
Settings: cells incubated two hours with the chemical substance
How it was run: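 Values are treated/untreated fluorescence ratios from a whole-genome yeast DNA chip hybridized over 12 hours at 65° C with Cy3- or Cy5-labelled cDNA from poly(A) mRNA. Log-phase S288C yeast in YPD at 25° C had received a single toxic chemical for two hours, dosed to slow growth without killing.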

Measured: The level of expressed mRNA in the presence of chemical substance/The level of expressed mRNA in the absence of chemical substance

CCCCC[C@H](O)CC(=O)CCc1ccc(O)c(OC)c1 [(13), gingerol]
1.1: yeast gene YAL044C | yeast gene YGL191W | yeast gene YGR112W | yeast gene YGR220C | yeast gene YHR037W | yeast gene YKL194C | yeast gene YMR023C | yeast gene YMR203W | yeast gene YPR134W
1.0: yeast gene YBR291C | yeast gene YDR268W | yeast gene YGL068W | yeast gene YGR029W | yeast gene YNL284C
1.8: yeast gene YKL150W
0.7: yeast gene YDR377W | yeast gene YDR529C | yeast gene YGL187C | yeast gene YIL070C | yeast gene YIL094C | yeast gene YJL096W | yeast gene YMR267W | yeast gene YOR187W | yeast gene YPL215W
1.6: yeast gene YAL039C | yeast gene YCL009C | yeast gene YOR316C
0.6: yeast gene YDL067C
1.7: yeast gene YLL001W
